Results reported in paper PMC6414199, “Bim escapes displacement by BH3-mimetic anti-cancer drugs by double-bolt locking both Bcl-XL and Bcl-2” (eLife, 2019).
pIC50: −log10 of the molar value.

Target: T1, Bcl-XL (Homo sapiens, UniProt Q07817)
T1 construct: gene BCL2L1; mCerulean3-Bcl-XL fusion expressed in MCF-7 cells
Test: live-cell FLIM-FRET displacement of Venus-Bad from mCer3-Bcl-XL in MCF-7 cells
Format: cell-based

T1 sequence (Q07817 whole entry, the tested form may be a part): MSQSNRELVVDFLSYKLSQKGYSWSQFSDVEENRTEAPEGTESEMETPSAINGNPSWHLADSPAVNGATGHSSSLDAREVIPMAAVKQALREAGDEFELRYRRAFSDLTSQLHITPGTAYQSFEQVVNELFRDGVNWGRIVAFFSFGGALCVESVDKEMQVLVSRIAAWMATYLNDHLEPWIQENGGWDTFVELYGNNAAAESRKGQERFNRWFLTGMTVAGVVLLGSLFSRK

Work on `CN(C)CC#Cc1ccc(OCCCc2sc(N3CCc4cccc(C(=O)Nc5nc6ccccc6s5)c4C3)nc2C(=O)O)c(F)c1` [A-1155463] yielded a pIC50 of over 5.90.
